{"source": "patent US12648948B2", "about": "“Methods and compositions for treating cancer” (UNITED STATES GOVERNMENT AS REPRESENTED BY THE DEPARTMENT …, priority 2017, dated 2026)", "key": {"[1]": {"test_system": "JNK-Axl-ERK signaling pathway", "assay": "Western blot, erlotinib-induced JNK-Axl-ERK signaling pathway in glioma cells", "format": "cell-based, human", "conditions": "GBM9, GBM39 neurospheres and U87EGFRwt cells", "method": "Western blot analysis was performed according to standard protocols."}, "[2]": {"conditions": "mouse, in vivo"}, "GBM9 subcutaneous tumors": {"test_system": "GBM9 subcutaneous tumors", "assay": "Subcutaneous GBM9 xenograft tumor growth", "format": "in vivo, athymic nude mice", "conditions": "erlotinib 50 mg/kg oral gavage, SP600125 40 mg/kg i.p., thalidomide 150 mg/kg i.p., daily for 10 days", "method": "4 to 6 weeks old female athymic nude mice were purchased from Charles River Laboratories. The mice were housed in plastic cages (4-5 mice per cage) in a room with a 12 hour day-night cycle. 1×10^6 GBM9 cells were subcutaneously injected into the right flank of each nude mouse. […] The mice were randomly divided into control and treatment groups, mice were treated with drugs using the indicated doses. For combination treatment, both drugs were given concurrently for indicated periods. Tumor dimensions were measured by caliper every two days and tumor volumes calculated by the formula: volume=length×width×width/2. Mice were sacrificed when tumors reached over […] or 24 days from the first day of treatment."}, "[3]": {"test_system": "GBM9 and GBM39 neurospheres", "assay": "AlamarBlue cell viability assay, patient derived GBM neurospheres", "format": "cell-based, human", "conditions": "72 h; for Cell viability, inhibitor combined with erlotinib: erlotinib 100 nM, SP600125, U0126, R428, thalidomide 1 μM, Enbrel 100 nM; for Cell viability, inhibitor alone: without erlotinib, 1 μM", "method": "(§1) Cell viability assay was conducted using AlamarBlue cell viability assay kit (ThermoFisher) following manufacturer's protocol. Cells were cultured in Corning 96-well black plates with clear bottom (5000 cells/well). Drugs were added to cells for 72 hour following detection using POLARstar Omega Microplate Reader (excitation at 544 nm and emission at 590 nm) (BMG LABTECH, Germany)."}, "[4]": {"test_system": "U87EGFRwt and U87EGFRvIII cells", "assay": "AlamarBlue cell viability assay, established GBM cell lines", "format": "cell-based, human", "conditions": "established GBM cell lines, 72 h; for Cell viability, inhibitor alone: without erlotinib", "method": "as §1"}, "GBM": {"test_system": "GBM", "conditions": "cited from earlier work"}, "GBM9 cells": {"test_system": "GBM9 cells", "assay": "Annexin-FACS assay and Caspase 3/7 activation", "format": "cell-based, human", "conditions": "GBM9 cells, 72 h, Annexin-FACS", "method": "Annexin assay was performed by using Annexin—V-FLUOS Staining kit (Roche applied Science). Cells (1×10^6) were plated in 6 well plates and treated with drugs or vehicle alone. After 72 hours cells were trypsinized and washed 2 times with 1×PBS. The cells were incubated for 15 minutes at room temperature with Propidium Iodide and Annexin—V-FLUOS labeling solution in incubation buffer. Annexin and/or PI positive cells were detected by Flow Cytometry.\nCaspase activity in the supernatant was measured using the Caspase-Glo 3/7 Assay (Promega, G8091) following manufacturer's instructions. Briefly, 72 hours after treatments, cells were washed by cold PBS and total cell lysates were prepared. 50 μg of total protein per sample was added per well of a 96 well plate and was incubated with 100 μl Caspase 3/7 reagent for 30 minutes. The luminescence of each sample was measured using a luminometer. All experiments included at least 3 replicates per group and were repeated 3 times."}, "GBM9 intracranial tumors": {"test_system": "GBM9 intracranial tumors", "assay": "Orthotopic (intracranial) GBM9 model, survival and bioluminescence imaging", "conditions": "erlotinib 50 mg/kg oral gavage and/or thalidomide 150 mg/kg i.p., 10 days; repeated with afatinib", "experimental": "For the orthotropic model, 1×10^5 GBM9 cells expressing firefly luciferase were injected into the right corpus striatum of the brains of 6-8-week-old nude mice using a stereotactic frame. […] The mice were treated with erlotinib 50 mg/kg by oral gavage and/or intraperitoneal (i.p.) injection of 150 mg/kg thalidomide for 10 consecutive days. Bioluminescence imaging (BLI) was performed to record the growth of tumor every 5 days. Kaplan-Maier survival curves were calculated using GraphPad Prism 7.0 software. Mice were monitored and sacrificed when neurological signs appeared or after 40 days."}, "TNF": {"test_system": "TNF", "assay": "TNF mRNA (qRT-PCR) and TNF ELISA in glioma cells", "format": "cell-based, human", "conditions": "GBM9 and U87EGFRwt, thalidomide 1 μM", "method": "Total RNA was isolated by TRIzol Reagent (Ambion). cDNA Reverse Transcription were performed by using High-Capacity cDNA Reverse Transcription Kit (Applied Biosystems). PCR primers were synthesized by IDT (Coralville, IA). Each PCR was carried out in triplicate in a 20 μl volume using SYBR Green Master Mix (Applied Biosystems) for 15 minutes at 95° C. for initial denaturing, followed by 40 cycles of 95° C. for 15 s and 60° C. for 60 s in ViiA 7 Real-Time PCR System (Applied Biosystems). At least two independent experiments were done. Values for each gene were normalized to expression levels of GAPDH mRNA.\n2×10^6 cells were incubated in serum-free or EGF free medium containing different concentrations of erlotinib or DMSO. After 48 hours, supernatant and cell lysates were collected. Supernatant medium was concentrated 5-10-fold with Pierce protein concentrator (ThermoFisher). TNF protein concentration in supernatant, cell lysates and tissue extracts was determined by ELISA using a commercial TNF detection kit (ThermoFisher) according to manufacturer's instructions. Additionally, GAS6 protein concentration in supernatant was measured by ELISA kit (LifeSpan BioSciences)."}, "[5]": {"test_system": "JNK-Axl-ERK signaling axis", "assay": "Signal transduction in intracranial GBM9 tumors (Western blot, IHC)", "format": "in vivo, mice", "conditions": "thalidomide given with erlotinib", "method": "To detect the in vivo levels of TNF, 1×10^6 GBM9 cells were injected into the right flanks of nude mice. When the subcutaneous tumor reached a volume of around 200 mm^3, the mice were treated with erlotinib to monitor the upregulation of TNF protein. The animals were dosed consecutively for 1, 2, 7 or 14 days and then sacrificed. The animals without treatment were considered as control (0-day treatment). Tumor tissues were rinsed in PBS and protein was extracted to analyze the TNF levels using ELISA and also used for western blot. To detect the protein expression in mice brain tumor tissues upon drug treatment, the same procedure was performed in orthotopic models. Additionally, with orthotopic models, mice were divided into four groups (control gavage group, erlotinib group, thalidomide group and erlotinib plus thalidomide, n=3). After 48 hours treatment tumors were harvested and subjected to Western blot and immunostaining.\nTumors from nude mice brains were fixed in 10% formalin and embedded in paraffin. Paraffin-embedded sections were cut at five-micrometer thickness. Immunohistochemical staining was performed using the ABC streptavidin-biotin method with the Vectastain ABC kit (Vector Laboratories, Burlingame, CA, USA) according to the manufacturer's protocol. Briefly, after deparaffinization and rehydration, endogenous peroxidase activity was quenched by a 10 min incubation in 3% H2O2. For antigen retrieval, the tissue sections were boiled in 10 mM sodium citrate buffer (pH 6.0) for 20 minutes. Binding of primary anti-pERK (1:100, Cell Signaling Technology, 4376) or anti-pJNK antibody (1:200, Cell signaling Technology, 4668) or anti-pAXL(1:400, R&D, AF2228) was carried out overnight at 4° C. The signal was detected by using the Sigmafast 3,3′-Diaminobenzidine tablets (DAB; Sigma, St. Louis MO). The sections were counterstained lightly with hematoxylin. The IHC staining intensity was scored semiquantitatively as: 0=No positive staining; 1=1-25% tumor cells stained, 2=26%-75% tumor cells stained and 3=>75% tumor cells stained."}, "EGFR": {"test_system": "EGFR", "assay": "Western blot, EGFR activation in U87EGFRwt cells", "format": "cell-based, human", "conditions": "serum starved, cetuximab overnight, EGF 50 ng/ml 15 min"}, "ERK": {"test_system": "ERK", "assay": "Western blot, ERK activation (pERK) in glioma cells", "conditions": "U87EGFRwt cells, serum starved; cetuximab overnight; EGF 50 ng/ml 15 min", "experimental": "Western blot analysis was performed according to standard protocols. In all experiments, before the addition of EGF or erlotinib established cells were cultured overnight in serum free DMEM and primary GBM neurospheres were EGF starved overnight. Cells not treated with EGF or erlotinib were also serum or EGF starved."}, "[6]": {"test_system": "primary embryonic cultures and differentiated PC12 cells", "conditions": "at dosages that inhibit activation of JNKs, after trophic withdrawal; cited from earlier work"}, "[7]": {"conditions": "single-arm phase II trial, GBM patients at first recurrence"}}}
{"compound": "O=C1CCC(N2C(=O)c3ccccc3C2=O)C(=O)N1", "note": "(stereo not shown) [thalidomide]", "values": [{"measurement": "Erlotinib-induced activation of the JNK-Axl-ERK signaling pathway in presence of TNF inhibitor", "setting": "[1]", "value": "interruption of the erlotinib-induced activation of the JNK-Axl-ERK signaling pathway"}, {"measurement": "Body weight of orthotopic models", "setting": "[2]", "value": "Body weight losses"}, {"measurement": "Growth of subcutaneous tumors", "setting": "GBM9 subcutaneous tumors", "value": "no significant effect on the growth of tumors"}, {"measurement": "Cell viability, thalidomide combined with afatinib", "setting": "[3]; afatinib 100 nM, thalidomide 1 μM", "value": "sensitizes"}, {"measurement": "Cell viability, inhibitor combined with erlotinib", "setting": "[3]", "value": "had the same effect"}, {"measurement": "Cell viability, inhibitor combined with erlotinib", "setting": "[4]", "value": "had the same effect"}, {"measurement": "Clinical efficacy in GBM patients", "setting": "GBM; human, in vivo", "value": "without success"}, {"measurement": "Number of viable (unstained) cells, inhibitor combined with erlotinib", "setting": "GBM9 cells", "value": "decreases the number of viable cells"}, {"measurement": "Survival of mice", "setting": "GBM9 intracranial tumors", "value": "neither erlotinib nor thalidomide alone had a significant effect"}, {"measurement": "Erlotinib-induced increase in TNF secretion in presence of thalidomide", "setting": "TNF", "value": "block the erlotinib-induced increase in TNF secretion"}, {"measurement": "JNK-Axl-ERK signaling axis in intracranial tumors (Western blot)", "setting": "[5]; erlotinib 50 mg/kg", "value": "blocked the EGFR inhibition induced upregulation of the TNF-JNK-Axl-ERK signaling axis"}, {"measurement": "pAxl, pJNK and pERK immunostaining of brain sections", "setting": "[5]; orthotopic model", "value": "inhibits erlotinib induced pAxl-pJNK-pERK activation"}]}
{"compound": "Nc1nc(Nc2ccc3c(c2)CC[C@@H](N2CCCC2)CC3)nn1-c1cc2c(nn1)-c1ccccc1CCC2", "note": "[R428]", "values": [{"measurement": "Cell viability, inhibitor combined with erlotinib", "setting": "[3]", "value": "sensitive to erlotinib"}, {"measurement": "Cell viability, inhibitor alone", "setting": "[3]", "value": "does not affect the viability of these cells"}, {"measurement": "Cell viability, inhibitor combined with erlotinib", "setting": "[4]", "value": "sensitive to erlotinib"}, {"measurement": "Cell viability, inhibitor alone", "setting": "[4]", "value": "does not affect the viability of these cells"}, {"measurement": "Number of viable (unstained) cells, inhibitor combined with erlotinib", "setting": "GBM9 cells", "value": "decreases the number of viable cells"}]}
{"compound": "EGF: Recombinant human EGF from Peprotech", "values": [{"measurement": "Basal EGFR activation", "setting": "EGFR", "value": "further increases in EGFR and ERK activation"}, {"measurement": "Basal ERK activation", "setting": "ERK", "value": "further increases in EGFR and ERK activation"}]}
{"compound": "Etanercept", "values": [{"measurement": "Erlotinib-induced activation of the JNK-Axl-ERK signaling pathway in presence of TNF inhibitor", "setting": "[1]", "value": "interruption of the erlotinib-induced activation of the JNK-Axl-ERK signaling pathway"}, {"measurement": "Cell viability, inhibitor combined with erlotinib", "setting": "[3]", "value": "sensitive to the effects of EGFR inhibition"}, {"measurement": "Cell viability, inhibitor combined with erlotinib", "setting": "[4]", "value": "sensitive to the effects of EGFR inhibition"}, {"measurement": "Number of viable (unstained) cells, inhibitor combined with erlotinib", "setting": "GBM9 cells", "value": "decreases the number of viable cells"}]}
{"compound": "N#CC(=C(/N)Sc1ccccc1N)/C(C#N)=C(\\N)Sc1ccccc1N", "note": "[U0126]", "values": [{"measurement": "Cell viability, inhibitor combined with erlotinib", "setting": "[3]", "value": "significant cell death"}, {"measurement": "Cell viability, inhibitor alone", "setting": "[3]", "value": "resistant to JNK or ERK inhibition alone"}, {"measurement": "Cell viability, inhibitor combined with erlotinib", "setting": "[4]", "value": "a combined inhibition of EGFR with ERK or JNK leads to a significant cell death"}, {"measurement": "Cell viability, inhibitor alone", "setting": "[4]", "value": "also resistant to EGFR inhibition or JNK inhibition or ERK inhibition alone"}, {"measurement": "Number of viable (unstained) cells, inhibitor combined with erlotinib", "setting": "GBM9 cells", "value": "decreases the number of viable cells"}]}
{"compound": "COc1cc2ncnc(Nc3ccc(F)c(Cl)c3)c2cc1OCCCN1CCOCC1", "note": "[gefitinib]", "values": [{"measurement": "Median overall survival (OS)", "setting": "GBM; [7]", "value": "about 39 weeks"}, {"measurement": "Radiographic responses", "setting": "GBM; [7]", "value": "No radiographic responses"}]}
{"compound": "CCSCc1ccc2c(c1)c1c3c(c4c5cc(CSCC)ccc5n5c4c1n2[C@H]1C[C@](O)(C(=O)OC)[C@]5(C)O1)CNC3=O", "note": "[CEP-1347]", "values": [{"measurement": "Neuronal survival", "setting": "[6]", "value": "promotes neuronal survival"}]}
